What all share (assay type): cell-based
Assay [1] relates to Staphylococcus aureus EN1252a gvrA^S84L grlA^S80F. As to the kind of experiment: microbe, parasite or virus in culture. Conditions: read-out: Antimicrobial activity (MIC). The method, then: (§1) Representative compounds were assayed for antimicrobial activity as follows: Minimum Inhibitory Concentrations (“MICs”) were determined by the microbroth dilution method as per NCCLS guidelines (National Committee for Clinical Laboratory Standards. 2000. Methods for dilution antimicrobial susceptibility tests for bacteria that grow aerobically, 5th ed. M7-A5. National Committee for Clinical Laboratory Standards, Wayne, Pa.), except that all growth incubations were conducted at 37° C. Bacterial cultures were tested in the following bacteriological media: S. aureus, S. epidermidis, and E. coli in Cation-Adjusted Mueller-Hinton Broth, S. pneumoniae in THY Broth supplemented with 1 mg/mL catalase under 5% CO2 atmosphere, S. pyogenes in THY Broth, E. faecalis in BHI Broth, H. influenzae in BHI Broth supplemented with 0.75 μL of 1 mg/mL NAD and 150 μL of 1 mg/ml hematin per 5 mL, and M. smegmatis in Middlebrook Broth plus ADC Enrichment.
S. aureus EN1252a gyrA^S84L grlA^S80F is a quinolone-resistant strain due to double mutations to the genes confer DNA gyrase and topoisomerase IV.

For assay [2], the system named is Streptococcus pneumoniae ATCC6303. Conditions: rifS, THY Broth with 1 mg/mL catalase, 5% CO2, 37° C., read-out: Antimicrobial activity (MIC).
In assay [3] the test system is Enterococcus faecalis ATCC29212. Particulars: rifS, BHI Broth, 37° C., read-out: Antimicrobial activity (MIC).
For assay [4], the system named is Haemophilus influenzae ATCC10211. Particulars: rifS, BHI Broth with NAD and hematin, 37° C., read-out: Antimicrobial activity (MIC).
Assay [5] is described as follows: MIC, microbroth dilution, panel of rifampin-susceptible Gram-positive strains. Particulars: across the five rifampin-susceptible Gram-positive strains. The method, then: as §1
S. aureus ATCC […], S. epidermidis ATCC 12228, S. pneumoniae ATCC6303, S. pyogenes ATCC 19615 and E. faecalis ATCC 29212 are rifampin-susceptible Gram-positive strains. […] The compounds of the current invention show further improved activity against these strains with MICs as low as 0.0005 μg/ml.

For assay [6], the system named is Streptococcus pyogenes ATCC19615. Particulars: rifS, THY Broth, 37° C., read-out: Antimicrobial activity (MIC).
[7] abbreviates: cipR, Cation-Adjusted Mueller-Hinton Broth, 37° C.

In brackets after ≈: the same amount, converted by molar mass. Read-outs that look alike come from different tables or passages of the source.

As for `CO[C@H]1/C=C/O[C@@]2(C)Oc3c(C)c(O)c4c(=O)c(c5oc6cc(N7CCN(C(C)C)CC7)cc(O)c6nc-5c4c3/C2=N/O)NC(=O)/C(C)=C\C=C\[C@H](C)[C@H](O)[C@@H](C)[C@@H](O)[C@@H](C)[C@H](OC(C)=O)[C@@H]1C` [Example 9, 11-Deoxy-11-hydroxyimino-1′,4-didehydro-1-deoxy-1,4-dihydro-3′-hydroxy-5′-(4-isopropyl-1-piperazinyl)-1-oxo-rifamycin VIII], the MIC in assay [1] (setting [7]) was in the range of 0.5 to 125 ng/mL (≈ 0.531 to 133 nM); in assay [2], 0.06 to 31 ng/mL (≈ 0.0637 to 32.9 nM); in assay [3], 500 to 31200 ng/mL (≈ 531 to 33200 nM); in assay [4], 125 to 8000 ng/mL (≈ 133 to 8490 nM).

As to `CO[C@H]1/C=C/O[C@@]2(C)Oc3c(C)c(O)c4c(=O)c(c5oc6cc(N7CCN(CC8CCCCC8)CC7)cc(O)c6nc-5c4c3/C2=N/O)NC(=O)/C(C)=C\C=C\[C@H](C)[C@H](O)[C@@H](C)[C@@H](O)[C@@H](C)[C@H](OC(C)=O)[C@@H]1C` [Example 11, 11-Deoxy-11-hydroxyimino-1′,4-didehydro-1-deoxy-1,4-dihydro-3′-hydroxy-5′-(4-cyclohexylmethyl-1-piperazinyl)-1-oxo-rifamycin VIII], the MIC in assay [1] (setting [7]) is 0.5 to 125 ng/mL (≈ 0.502 to 125 nM); in assay [2], 0.06 to 31 ng/mL (≈ 0.0602 to 31.1 nM); in assay [3], 500 to 31200 ng/mL (≈ 502 to 31400 nM); in assay [4], 125 to 8000 ng/mL (≈ 125 to 8030 nM).

`CO[C@H]1/C=C/O[C@@]2(C)Oc3c(C)c(O)c4c(=O)c(c5oc6cc(N7CCC(N8CCCCC8)CC7)cc(O)c6nc-5c4c3/C2=N/O)NC(=O)/C(C)=C\C=C\[C@H](C)[C@H](O)[C@@H](C)[C@@H](O)[C@@H](C)[C@H](OC(C)=O)[C@@H]1C` [Example 13, 11-Deoxy-11-hydroxyimino-1′,4-didehydro-1-deoxy-1,4-dihydro-3′-hydroxy-5′-[(1,4′)-bipiperidinyl-1′-yl]-1-oxo-rifamycin VIII]: the MIC in assay [1] (setting [7]) was in the range of 0.5 to 125 ng/mL (≈ 0.509 to 127 nM); in assay [2], 0.06 to 31 ng/mL (≈ 0.0611 to 31.6 nM); in assay [3] it was 500 to 31200 ng/mL (≈ 509 to 31800 nM); in assay [4], 125 to 8000 ng/mL (≈ 127 to 8150 nM).

As to `CO[C@H]1/C=C/O[C@@]2(C)Oc3c(C)c(O)c4c(=O)c(c5oc6cc(N(CCO)CCO)cc(O)c6nc-5c4c3/C2=N/O)NC(=O)/C(C)=C\C=C\[C@H](C)[C@H](O)[C@@H](C)[C@@H](O)[C@@H](C)[C@H](OC(C)=O)[C@@H]1C` [Example 18, 11-Deoxy-11-hydroxyimino-1′,4-didehydro-1-deoxy-1,4-dihydro-3′-hydroxy-5′-[bis-(2-hydroxy-ethyl)-amino]-1-oxo-rifamycin VIII], the MIC in assay [1] (setting [7]) was 0.5 to 125 ng/mL (≈ 0.544 to 136 nM); in assay [2], 0.06 to 31 ng/mL (≈ 0.0653 to 33.7 nM); in assay [3] it was 500 to 31200 ng/mL (≈ 544 to 34000 nM); in assay [4], 125 to 8000 ng/mL (≈ 136 to 8710 nM).

Take `CO[C@H]1/C=C/O[C@@]2(C)Oc3c(C)c(O)c4c(O)c(c(/C=N/N5CCN(C)CC5)c(O)c4c3C2=O)NC(=O)/C(C)=C\C=C\[C@H](C)[C@H](O)[C@@H](C)[C@@H](O)[C@@H](C)[C@H](OC(C)=O)[C@@H]1C` [rifampin, reference compound]: the MIC in assay [5] was 13 to 1000 ng/mL (≈ 15.8 to 1220 nM); in assay [1], 4 ng/mL (≈ 4.86 nM); in assay [6], 13 ng/mL (≈ 15.8 nM); in assay [2], 61 ng/mL (≈ 74.1 nM); in assay [3], 1000 ng/mL (≈ 1220 nM); in assay [4], 240 ng/mL (≈ 292 nM).

As for `CO[C@H]1/C=C/O[C@@]2(C)Oc3c(C)c(O)c4c(=O)c(c5oc6cc(N7CCN(CC(C)C)CC7)ccc6nc-5c4c3/C2=N/O)NC(=O)/C(C)=C\C=C\[C@H](C)[C@H](O)[C@@H](C)[C@@H](O)[C@@H](C)[C@H](OC(C)=O)[C@@H]1C` [Example 20, 11-Deoxy-11-hydroxyimino-1′,4-didehydro-1-deoxy-1,4-dihydro-5′-(4-isobutyl-1-piperazinyl)-1-oxo-rifamycin VIII], the MIC in assay [1] (setting [7]) lay in the range of 0.5 to 125 ng/mL (≈ 0.532 to 133 nM); in assay [2], 0.06 to 31 ng/mL (≈ 0.0638 to 33 nM); in assay [3], 500 to 31200 ng/mL (≈ 532 to 33200 nM); in assay [4], 125 to 8000 ng/mL (≈ 133 to 8510 nM).

The record behind these values is US7265107B2, “Rifamycin C-11 oxime cyclo derivatives effective against drug-resistant microbes” (Cumbre Pharmaceuticals Inc., priority 2004, dated 2007).
